# Test results reported in ChEMBL document CHEMBL6078700, “Synthesis of novel deuterated EGFR/ALK dual-target inhibitors and their activity against non-small cell lung cancer” (Eur J Med Chem, 2025).
# Key:
# BaF3 = test: Antiproliferative activity against mouse BaF3 cells expressing EML4-ALK fusion incubated for 48 hrs by CCK8 assay
# EML4-ALK = EML4-ALK (Homo sapiens, UniProt Q9UM73); test: Inhibition of EML4-ALK (unknown origin) phosphorylation by ELISA; type: protein assay
# PC-9 = test: Antiproliferative activity against human PC-9 cells expressing EGFR mutation incubated for 48 hrs by CCK8 assay
# [1] = Metabolic stability in human liver microsomes assessed as clearance at 1 uM measured for 60 mins by LC-MS/MS analysis; type: ADME, Microsome; conditions: read-out: CLH
# NCI-H2228 = test: Antiproliferative activity against human NCI-H2228 cells expressing EML4-ALK fusion incubated for 48 hrs by CCK8 assay
# [2] = Antiproliferative activity against human NCI-H1975 cells expressing EGFR mutation incubated for 48 hrs by CCK8 assay
# [3] = Metabolic stability in human liver microsomes assessed as half life at 1 uM measured for 60 mins by LC-MS/MS analysis; type: ADME, Microsome
# NCI-H522 = test: Antiproliferative activity against human NCI-H522 cells expressing wild-type EGFR/ALK incubated for 48 hrs by CCK8 assay
# NCI-H1975 [4] = test: Antitumor activity against human NCI-H1975 cells xenografted in BALB/c-nu mouse at 30 mg/kg, po administered daily orally for 7 days relative to control; type: functional; conditions: time 7 day; for inhibition in vivo at 30 mg/kg: Mus musculus, NCI-H1975, 168 h, read-out: TGI
# NCI-H1975 [5] = test: Antitumor activity against human NCI-H1975 cells xenografted in BALB/c-nu mouse at 5 mg/kg, po administered daily orally for 21 days relative to control; type: functional; conditions: time 21 day, 5 mg/kg, 504 h
# NCI-H1975 [6] = test: Antitumor activity against human NCI-H1975 cells xenografted in BALB/c-nu mouse at 30 mg/kg, po administered daily orally for 21 days relative to control; type: functional; conditions: time 21 day
# NCI-H1975 [7] = test: Antitumor activity against human NCI-H1975 cells xenografted in BALB/c-nu mouse at 15 mg/kg, po administered daily orally for 21 days relative to control; type: functional; conditions: time 21 day, 15 mg/kg, 504 h
# NCI-H1975 [8] = test: Induction of apoptosis in human NCI-H1975 cells assessed as necrotic cells at 5 nM incubated for 48 hrs by allo-Phycocyanin-Annexin V staining based flow cytometry (reference value: 0.031 %); type: functional
# NCI-H1975 [9] = test: Induction of apoptosis in human NCI-H1975 cells assessed as late apoptotic cells at 5 nM incubated for 48 hrs by allo-Phycocyanin-Annexin V staining based flow cytometry (reference value: 4.08 %); type: functional
# NCI-H1975 [10] = test: Induction of cell cycle arrest in human NCI-H1975 cells assessed as accumulation at S phase at 5 nM incubated for 24 hrs by PI/RNase staining based flow cytometry (reference value: 17.1 %); type: functional
# NCI-H1975 [11] = test: Induction of cell cycle arrest in human NCI-H1975 cells assessed as accumulation at G2/M phase at 5 nM incubated for 24 hrs by PI/RNase staining based flow cytometry (reference value: 32.71 %); type: functional
# NCI-H1975 [12] = test: Induction of cell cycle arrest in human NCI-H1975 cells assessed as accumulation at G0/G1 phase at 5 nM incubated for 24 hrs by PI/RNase staining based flow cytometry (reference value: 50.19 %); type: functional
# NCI-H1975 [13] = test: Induction of apoptosis in human NCI-H1975 cells assessed as early apoptotic cells at 5 nM incubated for 48 hrs by allo-Phycocyanin-Annexin V staining based flow cytometry (reference value: 2.27 %); type: functional
# NCI-H1975 [14] = test: Induction of apoptosis in human NCI-H1975 cells assessed as viable cells at 5 nM incubated for 48 hrs by allo-Phycocyanin-Annexin V staining based flow cytometry (reference value: 93.6 %); type: functional
# EML4-ALK, sequence (Q9UM73 whole entry): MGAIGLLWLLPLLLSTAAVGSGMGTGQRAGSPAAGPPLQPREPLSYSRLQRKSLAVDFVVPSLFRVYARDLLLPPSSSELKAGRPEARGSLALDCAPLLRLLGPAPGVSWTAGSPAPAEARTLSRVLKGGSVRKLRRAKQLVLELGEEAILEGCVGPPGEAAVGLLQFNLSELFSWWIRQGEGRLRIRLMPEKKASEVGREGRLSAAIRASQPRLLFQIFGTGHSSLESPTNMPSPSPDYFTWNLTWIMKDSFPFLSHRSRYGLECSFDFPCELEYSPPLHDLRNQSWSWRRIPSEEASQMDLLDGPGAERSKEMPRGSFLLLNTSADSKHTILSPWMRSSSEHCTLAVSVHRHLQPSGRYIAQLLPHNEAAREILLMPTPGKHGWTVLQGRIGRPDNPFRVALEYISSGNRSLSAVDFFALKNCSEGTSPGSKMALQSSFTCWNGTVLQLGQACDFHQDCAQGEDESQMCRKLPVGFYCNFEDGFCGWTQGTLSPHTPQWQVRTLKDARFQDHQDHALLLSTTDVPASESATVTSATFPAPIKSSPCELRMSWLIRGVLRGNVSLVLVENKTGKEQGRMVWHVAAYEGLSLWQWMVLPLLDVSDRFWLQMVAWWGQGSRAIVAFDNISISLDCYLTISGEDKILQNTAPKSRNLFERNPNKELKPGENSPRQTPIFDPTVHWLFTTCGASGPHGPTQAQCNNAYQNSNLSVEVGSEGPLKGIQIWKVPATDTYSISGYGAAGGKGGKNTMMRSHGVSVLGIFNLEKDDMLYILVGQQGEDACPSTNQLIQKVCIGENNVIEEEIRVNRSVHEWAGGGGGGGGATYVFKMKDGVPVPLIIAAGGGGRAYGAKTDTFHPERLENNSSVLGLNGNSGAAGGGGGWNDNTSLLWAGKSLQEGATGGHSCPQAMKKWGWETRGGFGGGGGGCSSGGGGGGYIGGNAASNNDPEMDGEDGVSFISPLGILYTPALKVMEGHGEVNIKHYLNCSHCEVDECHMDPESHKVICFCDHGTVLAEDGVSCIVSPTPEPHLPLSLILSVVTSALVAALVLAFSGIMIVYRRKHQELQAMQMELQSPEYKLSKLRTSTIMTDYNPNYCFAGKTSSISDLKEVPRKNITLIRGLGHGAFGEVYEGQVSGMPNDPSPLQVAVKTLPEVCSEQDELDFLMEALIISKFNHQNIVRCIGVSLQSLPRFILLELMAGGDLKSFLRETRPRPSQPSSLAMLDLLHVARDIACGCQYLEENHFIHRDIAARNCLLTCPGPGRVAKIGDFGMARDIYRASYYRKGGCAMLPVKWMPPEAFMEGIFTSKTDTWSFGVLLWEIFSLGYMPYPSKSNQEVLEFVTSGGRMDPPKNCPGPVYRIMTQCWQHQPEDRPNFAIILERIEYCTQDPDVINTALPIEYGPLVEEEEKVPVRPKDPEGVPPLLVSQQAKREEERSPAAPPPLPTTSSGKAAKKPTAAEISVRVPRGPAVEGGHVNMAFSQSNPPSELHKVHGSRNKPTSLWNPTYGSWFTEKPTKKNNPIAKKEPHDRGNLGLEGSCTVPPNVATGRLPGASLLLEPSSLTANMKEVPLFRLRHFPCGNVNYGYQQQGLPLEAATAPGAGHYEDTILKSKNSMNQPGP
# EML4-ALK, sequence (Q9HC35 whole entry, further chain): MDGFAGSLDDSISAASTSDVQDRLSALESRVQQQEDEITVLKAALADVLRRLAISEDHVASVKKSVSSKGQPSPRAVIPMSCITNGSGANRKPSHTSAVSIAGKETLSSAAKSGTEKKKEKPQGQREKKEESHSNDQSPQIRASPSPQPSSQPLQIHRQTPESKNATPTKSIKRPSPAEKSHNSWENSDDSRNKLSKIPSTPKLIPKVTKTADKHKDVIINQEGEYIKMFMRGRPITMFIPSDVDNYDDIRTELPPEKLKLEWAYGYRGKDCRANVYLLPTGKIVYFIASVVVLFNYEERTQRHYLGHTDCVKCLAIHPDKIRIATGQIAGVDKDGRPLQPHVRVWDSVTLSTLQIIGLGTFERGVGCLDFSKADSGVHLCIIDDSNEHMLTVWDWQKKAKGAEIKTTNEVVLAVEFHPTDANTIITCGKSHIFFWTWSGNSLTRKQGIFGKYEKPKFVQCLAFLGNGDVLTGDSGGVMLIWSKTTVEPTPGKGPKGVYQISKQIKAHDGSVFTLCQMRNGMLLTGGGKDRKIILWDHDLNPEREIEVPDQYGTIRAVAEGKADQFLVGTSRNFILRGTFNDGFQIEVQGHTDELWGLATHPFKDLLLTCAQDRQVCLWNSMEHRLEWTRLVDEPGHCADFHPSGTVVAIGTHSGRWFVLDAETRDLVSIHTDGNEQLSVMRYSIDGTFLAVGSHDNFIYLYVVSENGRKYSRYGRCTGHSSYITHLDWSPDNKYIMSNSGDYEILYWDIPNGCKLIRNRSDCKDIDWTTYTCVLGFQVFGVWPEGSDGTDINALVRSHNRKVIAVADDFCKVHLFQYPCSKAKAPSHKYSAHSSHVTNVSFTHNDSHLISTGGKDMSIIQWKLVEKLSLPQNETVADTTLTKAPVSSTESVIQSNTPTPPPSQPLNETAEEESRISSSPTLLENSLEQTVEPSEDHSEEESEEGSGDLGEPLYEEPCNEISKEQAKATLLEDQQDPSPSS
"IC50 (BaF3; Mus musculus, BaF3, 48 h) [nM]",IC50 (EML4-ALK) [nM],"IC50 (PC-9; Homo sapiens, PC-9, 48 h) [nM]",microsomal CLint at 1 µM [1] [µL/min/mg],"IC50 (NCI-H2228; Homo sapiens, NCI-H2228, 48 h) [nM]",half-life at 1 µM [3] [min],"IC50 (NCI-H522; Homo sapiens, NCI-H522, 48 h) [nM]",SMILES,"IC50 ([2]; Homo sapiens, NCI-H1975, 48 h) [nM]",other results
2.37,6.81,2.53,132,18.9,26.3,1380,C=CC(=O)Nc1cc(Nc2ncc(Cl)c(Nc3ccc(Cl)cc3[S+]([O-])C(C)C)n2)c(OC)cc1N(C)CCN(C)C (stereo not given),3.77,–
3.61,8.81,3.91,68.7,32.4,50.5,2710,[2H]C([2H])([2H])C([2H])([2H])[S+]([O-])c1cc(Cl)ccc1Nc1nc(Nc2cc(NC(=O)C=C)c(N(C)CCN(C)C)cc2OC)ncc1Cl (stereo not given),3.88,–
14.4,10,45.9,109,12.5,31.9,2730,[2H]C([2H])([2H])C([2H])([S+]([O-])c1ccccc1Nc1nc(Nc2cc(NC(=O)C=C)c(N(C)CCN(C)C)cc2OC)ncc1Cl)C([2H])([2H])[2H] (stereo not given),9.26,–
2.97,5.47,2.81,107,23.8,32.3,2490,C=CC(=O)Nc1cc(Nc2ncc(Cl)c(Nc3cccc(F)c3[S+]([O-])C(C)C)n2)c(OC)cc1N(C)CCN(C)C (stereo not given),7.59,–
7.74,5.59,5.13,27.7,58.2,125,5330,[2H]C([2H])([2H])C([2H])([2H])[S+]([O-])c1c(F)cccc1Nc1nc(Nc2cc(NC(=O)C=C)c(N(C)CCN(C)C)cc2OC)ncc1Cl (stereo not given),9.56,inhibition in vivo at 30 mg/kg (NCI-H1975 [4]): 85.9%
3.6,4.69,6.1,–,43.1,–,–,C=CC(=O)Nc1cc(Nc2ncc(Cl)c(Nc3ccccc3[S+]([O-])CC)n2)c(OC)cc1N(C)CCN(C)C (stereo not given),4.3,–
4.03,4.47,3.14,15.5,66.8,223,7860,C=CC(=O)Nc1cc(Nc2ncc(Cl)c(Nc3cccc(F)c3[S+]([O-])CC)n2)c(OC)cc1N(C)CCN(C)C (stereo not given),2.79,inhibition in vivo at 30 mg/kg (NCI-H1975 [4]): 75.3%
9.31,7.39,4.05,92,22.5,37.7,2380,C=CC(=O)Nc1cc(Nc2ncc(Cl)c(Nc3cccc(Cl)c3[S+]([O-])C(C)C)n2)c(OC)cc1N(C)CCN(C)C (stereo not given),7.55,–
36,7.32,< 0.001,66.7,54.2,52,2420,C=CC(=O)Nc1cc(Nc2ncc(Cl)c(Nc3cccc(Cl)c3[S+]([O-])CC)n2)c(OC)cc1N(C)CCN(C)C (stereo not given),3.76,–
16.1,2.09,5.56,70.5,23.7,49.1,2160,[2H]C([2H])([2H])C([2H])([S+]([O-])c1c(F)cccc1Nc1nc(Nc2cc(NC(=O)C=C)c(N(C)CCN(C)C)cc2OC)ncc1Cl)C([2H])([2H])[2H] (stereo not given),17.2,–
–,3.72,–,21.4,29.2,162,–,[2H]C([2H])([2H])C([2H])([2H])[S+]([O-])c1ccccc1Nc1nc(Nc2cc(NC(=O)C=C)c(N(C)CCN(C)C)cc2OC)ncc1Cl (racemic),–,IC50 (BaF3; baf3): 3.53 nM; IC50 (PC-9; pc-9): 6.32 nM; IC50 ([2]; nci-h1975): 2.33 nM; IC50 (NCI-H522; nci-h522): 4630 nM; inhibition in vivo at 30 mg/kg (NCI-H1975 [4]): 96.8%
–,–,–,–,–,–,–,"[2H]C([2H])([2H])C([2H])([2H])[S+]([O-])c1ccccc1Nc1nc(Nc2cc(NC(=O)C=C)c(N(C)CCN(C)C)cc2OC)ncc1Cl (single isomer, unassigned; (+))",–,"IC50 (BaF3; baf3): 18.3 nM; TGI (NCI-H1975 [5]): 72.01%; IC50 (PC-9; pc-9): 6.88 nM; TGI (NCI-H1975 [6]; 30 mg/kg, 504 h): 91.87%; TGI (NCI-H1975 [7]): 86.97%; IC50 (NCI-H2228; nci-h2228): 37.6 nM; IC50 ([2]; nci-h1975): 5.36 nM; IC50 (NCI-H522; nci-h522): 6330 nM"
7.46,–,983,–,28.9,–,4610,COc1cc(N2CCC(N3CCN(C)CC3)CC2)ccc1Nc1ncc(Cl)c(Nc2ccccc2P(C)(C)=O)n1 [BRIGATINIB],484,–
10.1,–,2150,–,18.3,–,2760,Cc1cc(Nc2ncc(Cl)c(Nc3ccccc3S(=O)(=O)C(C)C)n2)c(OC(C)C)cc1C1CCNCC1 [CERITINIB],2110,–

SMILES,"IC50 (BaF3; Mus musculus, BaF3, 48 h) [nM]",IC50 (EML4-ALK) [nM],"IC50 (PC-9; Homo sapiens, PC-9, 48 h) [nM]",microsomal CLint at 1 µM [1] [µL/min/mg],"IC50 (NCI-H2228; Homo sapiens, NCI-H2228, 48 h) [nM]",half-life at 1 µM [3] [min],"IC50 (NCI-H522; Homo sapiens, NCI-H522, 48 h) [nM]","IC50 ([2]; Homo sapiens, NCI-H1975, 48 h) [nM]",other results
C=CC(=O)Nc1cc(Nc2nccc(-c3cn(C)c4ccccc34)n2)c(OC)cc1N(C)CCN(C)C [OSIMERTINIB],327,–,6.43,–,1840,–,2320,4.16,Activity (NCI-H1975 [8]): 0.032%; TGI (NCI-H1975 [6]): 95.05%; Activity (NCI-H1975 [9]): 16.7%; Activity (NCI-H1975 [10]): 6.87%; Activity (NCI-H1975 [11]): 27.24%; Activity (NCI-H1975 [12]): 65.8%; Activity (NCI-H1975 [13]): 12.2%; Activity (NCI-H1975 [14]): 71.1%; TGI (NCI-H1975 [4]): 94.73%
